# According to patent US20210169899A1, “COMPOSITIONS AND THEIR USE IN ORAL DOSING REGIMENS” (Lipocine Inc., priority 2014, published 2021):
# Experiment: Clinical trial of oral testosterone undecanoate TRT in hypogonadal males, 24 hour PK profiles of serum testosterone with dose titration at weeks 3 and 7
# Type: in vivo, human
# Method: Specifically, 24 hour pharmacokinetic profiles for serum testosterone were determined for hypogonadal subjects receiving 225 mg TU twice daily with a meal after 3 weeks of treatment. The titration or dose adjustment was made based on the serum testosterone Cavg0-24 value calculated from the 24 hour pharmacokinetic profile (or the Cmax value). Another titration or dose adjustment was made similarly at 7 weeks. The titration or adjustment criteria used during the study is shown in the first column of Table A with the titration decision (dose adjustment) is shown in column 3.
# A clinical trial was performed as set forth below in regards to the TRT disclosed herein.
# Diagnosis of primary or secondary hypogonadism Male, 18 to 80 years of age, hypogonadism onset prior to age 65 Serum T<300 ng/dL, based on 2 consecutive samples, obtained on two separate days (6 to 10 AM) either naïve or following appropriate washout.
# IPSS≥19 points PSA>2 ng/mL
# Hemoglobin <11.5 or >16.5 g/dL; Hematocrit <35 or >54% History of myocardial infarction; prostate or breast cancer; uncontrolled, untreated obstructive sleep apnea; gastric surgery, HIV, Hepatitis, seizures or convulsions Subjects with a partner who is pregnant or planning to become pregnant during the study A total of 314 subjects were enrolled and randomized into the TRT arm or active control arm. The clinical trial design is outlined in FIG. 1. Starting dose: 225 mg testosterone undecanoate (TU) (equivalent to 142 mg testosterone) twice daily, 12 hours apart, with standard meals Two dose titration periods based on full 24 hour PK profile at Week 3 and 7
# The dose range was 150 mg to 300 mg BID (total daily dose of 300 mg to 600 mg TU).
# Efficacy Population (N=153): Subjects randomized into the study with at least one PK profile and no significant protocol deviations (includes imputed missing data/LOCF)
# Safety Set (N=210): Subjects randomized into the study and took at least one dose of the drug Imputed missing data by Last Observation Carried Forward (LOCF), or considered treatment failures if no PK data available Full Analysis Set (N=193): Subjects randomized into the study with at least one PK profile (includes imputed missing data/LOCF) Per Protocol Set (N=132): Subjects who completed Week 13 without significant protocol deviations Primary endpoint target ≥75% subjects should achieve Cavg within normal range (300 ng/dL to 1140 ng/dL) and >65% lower bound 95% CI
# [1] = serum total T, Efficacy Population
compound,measurement,setting,value
CCCCCCCCCCC(=O)O[C@H]1CC[C@H]2[C@@H]3CCC4=CC(=O)CC[C@]4(C)[C@H]3CC[C@]12C [testosterone undecanoate],95% CI lower bound of % subjects with Cavg within normal range,Efficacy Population,81.9%
same,% of subjects with Cavg < 300 ng/dL,Efficacy Population,11.2%
same,% of subjects with Cavg > 1140 ng/dL,Efficacy Population,0.7%
same,% subjects with Cavg within normal range,"Efficacy Population, serum testosterone Cavg 300 ng/dL to 1140 ng/dL",88.2%
same,95% CI lower bound of % subjects with Cavg within normal range,Full Analysis Set,82.0%
same,% subjects with Cavg within normal range,"Full Analysis Set, Cavg 300 ng/dL to 1140 ng/dL",87.5%
same,95% CI lower bound of % subjects with Cavg within normal range,Per Protocol Set,81.1%
same,% subjects with Cavg within normal range,"Per Protocol Set, Cavg 300 ng/dL to 1140 ng/dL",87.9%
same,95% CI lower bound of % subjects with Cavg within normal range,Safety Set,73.8%
same,% subjects with Cavg within normal range,"Safety Set, Cavg 300 ng/dL to 1140 ng/dL",80.0%
same,AM - PM effect,comparison table,Not much different AM - PM
same,Subjects with Cavg < 300 ng/dL,comparison table,11%
same,Variability (CV) of Cavg,comparison table,37%
same,Variability (CV) of Cmax,comparison table,45%
same,Mean Cavg,"comparison table, serum testosterone",447 ng/dL
same,Efficacy (% subjects with Cavg in normal range),"comparison table, starting daily dose 450 mg TU",analysis (88.2%)
same,"24 hour pharmacokinetic profiles at weeks 3, 7 and 13 (FIG. 2)",patients without dose change during the trial,consistent inter-day pharmacokinetics
same,"Cavg, Mean (CV)","serum testosterone, Efficacy Population",447 (37%) ng/dL
same,Proportion of subjects with 1800 ≤ Cmax ≤ 2500 ng/dL,[1],4.6%
same,Proportion of subjects with Cmax < 1500 ng/dL,[1],82.9%
same,Proportion of subjects with Cmax > 2500 ng/dL,[1],2.0%
same,% subjects with serum testosterone Cavg0-24 h within the normal range,subjects treated with TRT and titration scheme,about 87%
